Patent US7531482B2, “Thieno-pyrimidine compounds having fungicidal activity” (Dow AgroSciences LLC, priority 2005, dated 2009)

Assays:
Type in all cases: in vivo
Colletotricum lagenarium = test: Cucumber Anthracnose (COLLLA) whole-plant disease control test; details: Cucumis sativus, foliar; 200 ppm applied to foliage of cucumber; inoculated one day after treatment; read-out: COLLLA disease control
Erysiphe cichoracaerum = test: Cucumber Powdery Mildew (ERYSCI) whole-plant disease control test; details: Erysiphe, foliar; 200 ppm applied to foliage of cucumber; inoculated one day after treatment; read-out: ERYSCI disease control
Leptosphaeria nodorum = test: Glume Blotch of Wheat (LEPTNO) whole-plant disease control test; details: Parastagonospora nodorum, foliar; for pest or weed control at 200 ppm: 200 ppm applied to foliage of wheat, inoculated one day after treatment, read-out: LEPTNO disease control; for pest or weed control at 75 ppm: 75 ppm (footnote b), wheat foliage
Phytophthora infestans = test: whole plant or invertebrate; details: Phytophthora infestans, in Solanum lycopersicum, foliar, read-out: PHYTIN disease control, 200 ppm applied to foliage of tomato; inoculated one day after treatment
[1] = tested on: Puccinia recondita tritici; test: Leaf Rust of Wheat (PUCCRT) whole-plant disease control test; details: Puccinia recondita, foliar; for pest or weed control at 200 ppm: 200 ppm applied to foliage of wheat, inoculated one day after treatment, read-out: PUCCRT disease control; for pest or weed control at 8.3 ppm: 8.3 ppm (footnote c), wheat foliage
[2] = tested on: Magnaporthe grisea=Pyricularia oryzae; test: whole plant or invertebrate; details: Pyricularia oryzae, foliar; for pest or weed control at 200 ppm: read-out: PYRIOR disease control, 200 ppm applied to foliage of rice, inoculated one day after treatment; for pest or weed control at 8.3 ppm: read-out: PYRIOR disease control, 8.3 ppm (footnote c), rice foliage
[3] = tested on: Mycosphaerella graminicola=Septoria tritici; test: Speckled Leaf Blotch of Wheat (SEPTTR) whole-plant disease control test; details: Mycosphaerella, foliar, 75 ppm applied to foliage of wheat; read-out: SEPTTR disease control

Compound | pest or weed control at 200 ppm (Colletotricum lagenarium) | pest or weed control at 200 ppm (Erysiphe cichoracaerum) | pest or weed control at 200 ppm (Leptosphaeria nodorum) | pest or weed control at 200 ppm (Phytophthora infestans) | pest or weed control at 200 ppm [1] | pest or weed control at 200 ppm [2] | pest or weed control at 75 ppm [3] | pest or weed control at 75 ppm (Leptosphaeria nodorum) | pest or weed control at 8.3 ppm [1] | pest or weed control at 8.3 ppm [2]
FC(F)(F)c1ccc(Oc2ccc(CCNc3ncnc4scc(Cl)c34)cc2)nc1 [Compound 1, 5-(Chlorothieno[2,3-d]pyrimidin-4-yl)-{2-[4-(5-trifluoromethylpyridin-2-yloxy)phenyl]ethyl}amine] | 0 to 49% | 50 to 79% | 50 to 79% | 0 to 49% | 80 to 100% | 80 to 100% | 50 to 79% |  |  | 
CS(=O)(=O)c1ccc(Oc2ccc(CCNc3ncnc4scc(Cl)c34)cc2)nc1 [Compound 2] | 0 to 49% | 0 to 49% | 0 to 49% | 0 to 49% | 80 to 100% | 50 to 79% |  |  |  | 
O=[N+]([O-])c1ccc(Oc2ccc(CCNc3ncnc4scc(Cl)c34)cc2)nc1 [Compound 3] | 50 to 79% | 50 to 79% | 50 to 79% | 80 to 100% | 80 to 100% | 80 to 100% | 50 to 79% |  |  | 
N#Cc1ccc(Oc2ccc(CCNc3ncnc4scc(Cl)c34)cc2)nc1 [Compound 4] | 80 to 100% | 80 to 100% | 80 to 100% | 80 to 100% | 80 to 100% | 80 to 100% | 50 to 79% |  |  | 
CC(C)(C)OC(=O)c1ccc(Oc2ccc(CCNc3ncnc4scc(Cl)c34)cc2)cc1 [Compound 6] | 50 to 79% | 80 to 100% | 0 to 49% | 50 to 79% | 80 to 100% | 80 to 100% | 50 to 79% |  |  | 
Clc1csc2ncnc(NCCc3ccc(Oc4ccc(Br)cn4)cc3)c12 [Compound 7, {2-[4-(5-Bromopyridin-2-yloxy)phenyl]ethyl}-(5-chlorothieno[2,3-d]pyrimidin-4-yl}amine] | 50 to 79% | 80 to 100% | 80 to 100% | 0 to 49% | 80 to 100% | 50 to 79% | 50 to 79% |  |  | 
COC(=O)c1ccc(Oc2ccc(CCNc3ncnc4scc(Cl)c34)cc2)nc1 [Compound 20] | 0 to 49% | 0 to 49% | 0 to 49% | 0 to 49% | 80 to 100% | 0 to 49% |  |  |  | 
NC(=O)c1cccc(Oc2ccc(CCNc3ncnc4scc(Cl)c34)cc2)n1 [Compound 82] |  |  |  |  |  |  | 50 to 79% | 50 to 79% | 80 to 100% | 80 to 100%
O=[N+]([O-])c1cccc(Oc2ccc(CCNc3ncnc4scc(Cl)c34)cc2)n1 [Compound 83] |  |  |  |  |  |  | 50 to 79% | 50 to 79% | 80 to 100% | 80 to 100%
COc1cccc(Oc2ccc(CCNc3ncnc4scc(Cl)c34)cc2)n1 [Compound 84, (5-Chlorothieno[2,3-d]pyrimidin-4-yl)-{2-[4-(6-methoxypyridin-2-yloxy)phenyl]ethyl}amine] |  |  |  |  |  |  | 50 to 79% | 50 to 79% | 80 to 100% | 80 to 100%
O=c1ncn(-c2cccc(Oc3ccc(CCNc4ncnc5scc(Cl)c45)cc3)n2)[nH]1 [Compound 90] |  |  |  |  |  |  | 50 to 79% | 0 to 49% | 0 to 49% | 50 to 79%
C[S+]([O-])c1cc(Cl)nc(Oc2ccc(CCNc3ncnc4scc(Cl)c34)cc2)c1 (stereo not drawn) [Compound 92] |  |  |  |  |  |  | 50 to 79% | 0 to 49% | 80 to 100% | 80 to 100%
CSc1cc(C(F)(F)F)cc(Oc2ccc(CCNc3ncnc4scc(Cl)c34)cc2)n1 [Compound 93] |  |  |  |  |  |  | 50 to 79% | 0 to 49% | 80 to 100% | 80 to 100%
CC(C)(C)c1noc(-c2cccc(Oc3ccc(CCNc4ncnc5scc(Cl)c45)cc3)n2)n1 [Compound 96] |  |  |  |  |  |  | 50 to 79% | 50 to 79% | 80 to 100% | 50 to 79%
O=C(O)c1ccc(C(F)(F)F)nc1Oc1ccc(CCNc2ncnc3scc(Cl)c23)cc1 [Compound 98] |  |  |  |  |  |  | 50 to 79% | 0 to 49% | 0 to 49% | 0 to 49%
CC(=O)c1cccc(Oc2ccc(CCNc3ncnc4scc(Cl)c34)cc2)n1 [Compound 100] |  |  |  |  |  |  |  | 0 to 49% | 80 to 100% | 80 to 100%
CC(C)(C)C(=O)NNc1cccc(Oc2ccc(CCNc3ncnc4scc(Cl)c34)cc2)n1 [Compound 102, 2,2-Dimethylpropionic acid N′-(6-{4-[2-(5-chlorothieno[2,3-d]pyrimidin-4-ylamino)ethyl]phenoxy}pyridine-2-yl)-hydrazide] |  |  |  |  |  |  | 0 to 49% | 0 to 49% | 0 to 49% | 50 to 79%

Compound | pest or weed control at 200 ppm (Colletotricum lagenarium) | pest or weed control at 200 ppm (Erysiphe cichoracaerum) | pest or weed control at 200 ppm (Leptosphaeria nodorum) | pest or weed control at 200 ppm (Phytophthora infestans) | pest or weed control at 200 ppm [1] | pest or weed control at 200 ppm [2] | pest or weed control at 75 ppm [3] | pest or weed control at 75 ppm (Leptosphaeria nodorum) | pest or weed control at 8.3 ppm [1] | pest or weed control at 8.3 ppm [2]
CC(C)(C)c1nnc(Oc2ccc(CCNc3ncnc4scc(Cl)c34)cc2)s1 [Compound 109] |  |  |  |  |  |  | 50 to 79% | 50 to 79% | 80 to 100% | 80 to 100%
FC(F)(F)COc1cccc(Oc2ccc(CCNc3ncnc4scc(Cl)c34)cc2)n1 [Compound 111] |  |  |  |  |  |  | 50 to 79% | 0 to 49% | 50 to 79% | 80 to 100%
COc1cnc(C(F)(F)F)c(F)c1Oc1ccc(CCNc2ncnc3scc(Cl)c23)cc1 [Compound 113] |  |  |  |  |  |  | 0 to 49% | 0 to 49% | 80 to 100% | 80 to 100%
Clc1csc2ncnc(NCCc3ccc(Oc4snnc4-c4ccccc4)cc3)c12 [Compound 115] |  |  |  |  |  |  | 50 to 79% | 50 to 79% | 80 to 100% | 50 to 79%
COc1ccc([N+](=O)[O-])c(Oc2ccc(CCNc3ncnc4scc(Cl)c34)cc2)n1 [Compound 116] |  |  |  |  |  |  | 0 to 49% | 0 to 49% | 80 to 100% | 0 to 49%
CC(C)Cc1nnc(Oc2ccc(CCNc3ncnc4scc(Cl)c34)cc2)s1 [Compound 117] |  |  |  |  |  |  | 0 to 49% | 0 to 49% | 80 to 100% | 80 to 100%
Clc1csc2ncnc(NCCc3ccc(Oc4nnc(-c5ccncc5)s4)cc3)c12 [Compound 118] |  |  |  |  |  |  | 0 to 49% | 0 to 49% | 80 to 100% | 80 to 100%
Clc1csc2ncnc(NCCc3ccc(Oc4nnc(COc5ccccc5)s4)cc3)c12 [Compound 119] |  |  |  |  |  |  | 0 to 49% | 0 to 49% | 80 to 100% | 80 to 100%
O=Cc1sc(Oc2ccc(CCNc3ncnc4scc(Cl)c34)cc2)nc1Cl [Compound 121] |  |  |  |  |  |  | 0 to 49% | 0 to 49% | 80 to 100% | 80 to 100%
FC(F)(F)c1cnccc1Oc1ccc(CCNc2ncnc3scc(Cl)c23)cc1 [Compound 126] |  |  |  |  |  |  | 80 to 100% | 50 to 79% | 80 to 100% | 
FC(F)(F)COc1ccnc(Oc2ccc(CCNc3ncnc4scc(Cl)c34)cc2)c1 [Compound 127] |  |  |  |  |  |  | 50 to 79% | 80 to 100% | 80 to 100% | 
Nc1c(F)c(F)nc(Oc2ccc(CCNc3ncnc4scc(Cl)c34)cc2)c1F [Compound 128] |  |  |  |  |  |  |  |  | 80 to 100% | 80 to 100%
Fc1cc(F)c(Oc2ccc(CCNc3ncnc4scc(Cl)c34)cc2)nc1F [Compound 129] |  |  |  |  | 80 to 100% | 80 to 100% | 80 to 100% | 50 to 79% |  | 
N#Cc1c(Cl)cncc1Oc1cccc(CCNc2ncnc3scc(Cl)c23)c1 [Compound 130] | 0 to 49% | 0 to 49% |  | 80 to 100% | 80 to 100% | 80 to 100% | 0 to 49% |  |  | 
Fc1cnc(C(F)(F)F)c(F)c1Oc1cccc(CCNc2ncnc3scc(Cl)c23)c1 [Compound 131] |  |  |  |  |  |  |  |  | 50 to 79% | 
Fc1ccc(F)c(Oc2ccc(CCNc3ncnc4scc(Cl)c34)cc2)n1 [Compound 132] |  |  |  |  |  |  |  |  | 80 to 100% | 80 to 100%
N#Cc1ccc(C(F)(F)F)nc1Oc1ccc(CCNc2ncnc3scc(Cl)c23)cc1 [Compound 133] |  |  |  |  |  |  |  |  | 0 to 49% | 
